Reference: US9840501B2, “Morpholin-pyridine derivatives” (Hoffmann-La Roche Inc., priority 2014, dated 2017)

Experiments:
mouse TAAR1 = mouse TAAR1 (Mus musculus (Mouse), UniProt Q923Y8); assay: Radioligand binding assay on mouse TAAR1; settings: for Ki: mouse TAAR1, membranes of stably transfected HEK-293 cells, first value of the pair, read-out: Ki (μM) mouse/rat: mouse
Protocol: (§1) For the construction of expression plasmids the coding sequences of human, rat and mouse TAAR 1 were amplified from genomic DNA essentially as described by Lindemann et al.. The Expand High Fidelity PCR System (Roche Diagnostics) was used with 1.5 mM Mg^2+ and purified PCR products were cloned into pCR2.1-TOPO cloning vector (Invitrogen) following the instructions of the manufacturer. PCR products were subcloned into the pIRESneo2 vector (BD Clontech, Palo Alto, Calif.), and expression vectors were sequence verified before introduction in cell lines.
(§2) For the generation of stably transfected cell lines HEK293 cells were transfected with the pIRESneo2 expression plasmids containing the TAAR coding sequences (described above) with Lipofectamine 2000 (Invitrogen) according to the instructions of the manufacturer, and 24 hrs post transfection the culture medium was supplemented with 1 mg/ml G418 (Sigma, Buchs, Switzerland). After a culture period of about 10 d clones were isolated, expanded and tested for responsiveness to trace amines (all compounds purchased from Sigma) with the cAMP Biotrak Enzyme immunoassay (EIA) System (Amersham) following the non-acetylation EIA procedure provided by the manufacturer.
Radioligand Binding Assay on Mouse TAAR1
(§3) Membrane Preparation and Radioligand Binding.
(§4) Cells were released from culture flasks using trypsin/EDTA, harvested, washed twice with ice-cold PBS (without Ca^2+ and Mg^2+), pelleted at 1,000 rpm for 5 min at 4° C., frozen and stored at −80° C. Frozen pellets were suspended in 20 ml HEPES-NaOH (20 mM, pH 7.4) containing 10 mM EDTA and homogenized with a Polytron (PT 6000, Kinematica) at 14′000 rpm for 20 s. The homogenate was centrifuged at 48,000×g for 30 min at 4° C. Subsequently, the supernatant was removed and discarded, and the pellet resuspended in 20 ml HEPES-NaOH (20 mM, pH 7.4) containing 0.1 mM EDTA using the Polytron (20 s at 14′000 rpm). This procedure was repeated and the final pellet resuspended in HEPES-NaOH containing 0.1 mM EDTA and homogenized using the Polytron. Typically, aliquots of 2 ml membrane portions were stored at −80° C. With each new membrane batch the dissociation constant (Kd) was determined via a saturation curve. […] Nonspecific binding was defined as the amount of ^3[H]—(S)-4-[(ethyl-phenyl-amino)-methyl]-4,5-dihydro-oxazol-2-ylamine bound in the presence of 10 μM unlabeled ligand. All compounds were tested at a broad range of concentrations (10 pM to 10 μM) in duplicates. […] The 96 deep well plates were incubated for 1 hr at 4° C. Incubations were terminated by rapid filtration through Unifilter-96 plates (Packard Instrument Company) and glass filters GF/C (Perkin Elmer) presoaked for 1 hr in polyethylenimine (0.3%) and washed 3 times with 1 ml of cold binding buffer. After addition of 45 μl of Microscint 40 (PerkinElmer) the Unifilter-96 plate was sealed and after 1 hr the radioactivity counted using a TopCount Microplate Scintillation Counter (Packard Instrument Company).

rat TAAR1 = rat TAAR1 (Rattus norvegicus (Rat), UniProt Q923Y9); assay: Radioligand binding assay on rat TAAR1; settings: for Ki: rat TAAR1, membranes of stably transfected HEK-293 cells, second value of the pair, read-out: Ki (μM) mouse/rat: rat
Protocol: as §1, §2
Radioligand Binding Assay on Rat TAAR1
as §3
as §4, with “1′000” for “1,000”, “48′000×g” for “48,000×g”

Sequence of rat TAAR1 (Q923Y9 whole entry): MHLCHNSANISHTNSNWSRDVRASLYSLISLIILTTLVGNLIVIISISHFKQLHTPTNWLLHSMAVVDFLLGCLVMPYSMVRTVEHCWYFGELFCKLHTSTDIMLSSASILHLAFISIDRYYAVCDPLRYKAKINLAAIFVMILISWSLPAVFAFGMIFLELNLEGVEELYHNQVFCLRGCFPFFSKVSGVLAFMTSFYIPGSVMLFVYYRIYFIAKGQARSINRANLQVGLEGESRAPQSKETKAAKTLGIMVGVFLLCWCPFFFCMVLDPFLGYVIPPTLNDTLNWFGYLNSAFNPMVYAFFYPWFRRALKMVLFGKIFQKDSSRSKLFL
Sequence of mouse TAAR1 (Q923Y8 whole entry): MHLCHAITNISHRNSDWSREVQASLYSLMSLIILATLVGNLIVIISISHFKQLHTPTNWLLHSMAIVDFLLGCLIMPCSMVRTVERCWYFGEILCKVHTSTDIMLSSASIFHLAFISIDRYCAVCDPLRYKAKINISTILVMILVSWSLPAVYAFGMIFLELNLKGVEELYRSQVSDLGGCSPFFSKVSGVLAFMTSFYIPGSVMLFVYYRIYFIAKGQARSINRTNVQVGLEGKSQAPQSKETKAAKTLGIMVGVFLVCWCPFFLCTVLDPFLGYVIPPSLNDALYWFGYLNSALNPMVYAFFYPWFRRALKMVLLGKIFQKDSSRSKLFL

Row | SMILES | Ki (mouse TAAR1) | Ki (rat TAAR1) | Kd (mouse TAAR1; mouse TAAR1 membranes, saturation curve, usual value per membrane batch, read-out: dissociation constant (Kd) of the radioligand) | Kd (rat TAAR1; rat TAAR1 membranes, saturation curve, usual value per membrane batch, read-out: dissociation constant (Kd) of the radioligand)
1 | O=C(Nc1ccc([C@H]2CNCCO2)nc1)c1ccc(C(F)(F)F)cc1 [Example 53, N-[6-[(2R)-Morpholin-2-yl]-3-pyridyl]-4-(trifluoromethyl)benzamide] | 0.0061 µM | 0.0718 µM |  | 
2 | O=C(Nc1cnc(C2CNCCO2)c(Cl)c1)c1ccnc(C(F)(F)F)c1 (racemic) [Example 107, (RS)—N-(5-Chloro-6-morpholin-2-yl-3-pyridyl)-2-(trifluoromethyl)pyridine-4-carboxamide] | 0.143 µM | 0.371 µM |  | 
3 | FC(F)(F)c1ccnc(Nc2ccc([C@H]3CNCCO3)nc2)c1 [Example 28, 6-[(2R)-Morpholin-2-yl]-N-[4-(trifluoromethyl)-2-pyridyl]pyridin-3-amine] | 0.11 µM | 0.606 µM |  | 
4 | O=C(Nc1ccc([C@H]2CNCCO2)nc1)c1[nH]nc(C2CC2)c1Cl [Example 60, 4-Chloro-3-cyclopropyl-N-[6-[(2R)-morpholin-2-yl]-3-pyridyl]-1H-pyrazole-5-carboxamide] | 0.0096 µM | 0.0448 µM |  | 
5 | O=C(Nc1ccc([C@@H]2CNCCO2)nc1)c1cccc(C(F)(F)F)c1 [Example 35, N-[6-[(2S)-Morpholin-2-yl]-3-pyridyl]-3-(trifluoromethyl)benzamide] | 0.0056 µM | 0.0107 µM |  | 
6 | Clc1ccc(Nc2ccc(C3CNCCO3)nc2)cc1 (racemic) [Example 1, (RS)—N-(4-Chlorophenyl)-6-morpholin-2-yl-pyridin-3-amine] | 0.0017 µM | 0.071 µM |  | 
7 | CC(C)Cc1cc(C(=O)Nc2ccc([C@H]3CNCCO3)nc2)[nH]n1 [Example 94, 3-Isobutyl-N-[6-[(2R)-morpholin-2-yl]-3-pyridyl]-1H-pyrazole-5-carboxamide] | 0.0216 µM | 0.107 µM |  | 
8 | O=C(Nc1ccc([C@@H]2CNCCO2)nc1)c1[nH]nc(C2CC2)c1Br [Example 81, 4-Bromo-3-cyclopropyl-N-[6-[(2S)-morpholin-2-yl]-3-pyridyl]-1H-pyrazole-5-carboxamide] | 0.006 µM | 0.0152 µM |  | 
9 | O=C(Nc1cnc(C2CNCCO2)nc1)c1ccc(Cl)cc1 (racemic) [Example 72, (RS)-4-Chloro-N-(2-morpholin-2-ylpyrimidin-5-yl)benzamide] | 0.0058 µM | 4.93 µM |  | 
10 | CCc1n[nH]c(C(=O)Nc2ccc([C@@H]3CNCCO3)nc2)c1Br [Example 78, 4-Bromo-3-ethyl-N-[6-[(2S)-morpholin-2-yl]-3-pyridyl]-1H-pyrazole-5-carboxamide] | 0.0056 µM | 0.041 µM |  | 
11 | O=C(Nc1cnc(C2CNCCO2)c(F)c1)c1ccnc(C(F)(F)F)c1 (racemic) [Example 113, (RS)—N-(5-Fluoro-6-morpholin-2-yl-3-pyridyl)-2-(trifluoromethyl)pyridine-4-carboxamide] | 0.0557 µM | 1.31 µM |  | 
12 | CC(C)c1cc(C(=O)Nc2ccc([C@@H]3CNCCO3)nc2)[nH]n1 [Example 38, 3-Isopropyl-N-[6-[(2S)-morpholin-2-yl]-3-pyridyl]-1H-pyrazole-5-carboxamide] | 0.0263 µM | 0.0727 µM |  | 
13 | CC(C)Cc1n[nH]c(C(=O)Nc2ccc([C@@H]3CNCCO3)nc2)c1F [Example 89, 4-Fluoro-3-isobutyl-N-[6-[(2S)-morpholin-2-yl]-3-pyridyl]-1H-pyrazole-5-carboxamide] | 0.0133 µM | 0.0297 µM |  | 
14 | CCc1ncc(C(=O)Nc2ccc([C@H]3CNCCO3)nc2)cn1 [Example 57, 2-Ethyl-N-[6-[(2R)-morpholin-2-yl]-3-pyridyl]pyrimidine-5-carboxamide] | 0.673 µM | 2.4 µM |  | 
15 | CCN(C[C@H]1COC(N)=N1)c1ccccc1 [^3[H]—(S)-4-[(ethyl-phenyl-amino)-methyl]-4,5-dihydro-oxazol-2-ylamine, reference compound] |  |  | ~0.7 nM | ~2.3 nM
16 | FC(F)(F)c1cccc(Nc2ccc([C@H]3CNCCO3)nc2)n1 [Example 50, N-[6-[(2R)-Morpholin-2-yl]-3-pyridyl]-6-(trifluoromethyl)pyridin-2-amine] | 0.005 µM | 0.122 µM |  | 
17 | CCc1n[nH]c(C(=O)Nc2ccc([C@H]3CNCCO3)nc2)c1C [Example 66, (R)-3-Ethyl-4-methyl-N-(6-(morpholin-2-yl)pyridin-3-yl)-1H-pyrazole-5-carboxamide] | 0.0113 µM | 0.0534 µM |  | 
18 | Cc1cn[nH]c1C(=O)Nc1ccc([C@@H]2CNCCO2)nc1 [Example 45, 4-Methyl-N-[6-[(2S)-morpholin-2-yl]-3-pyridyl]-1H-pyrazole-5-carboxamide] | 0.162 µM | 1.13 µM |  | 
19 | CCOc1ccc(Nc2ccc(C3CNCCO3)nc2)cc1 (racemic) [Example 3, (RS)—N-(4-Ethoxyphenyl)-6-morpholin-2-yl-pyridin-3-amine] | 0.0048 µM | 0.374 µM |  | 
20 | CCCCc1cc(C(=O)Nc2ccc([C@@H]3CNCCO3)nc2)[nH]n1 [Example 91, 3-Butyl-N-[6-[(2S)-morpholin-2-yl]-3-pyridyl]-1H-pyrazole-5-carboxamide] | 0.0031 µM | 0.0061 µM |  | 
21 | CC(C)c1cc(C(=O)Nc2ccc([C@H]3CNCCO3)nc2)[nH]n1 [Example 58, 3-Isopropyl-N-[6-[(2R)-morpholin-2-yl]-3-pyridyl]-1H-pyrazole-5-carboxamide] | 0.0373 µM | 0.685 µM |  | 
22 | FC(F)(F)c1ccc(Nc2ccc([C@@H]3CNCCO3)nc2)cn1 [Example 22, 6-[(2S)-Morpholin-2-yl]-N-[6-(trifluoromethyl)-3-pyridyl]pyridin-3-amine] | 0.0126 µM | 0.247 µM |  | 
23 | CCc1n[nH]c(C(=O)Nc2ccc([C@@H]3CNCCO3)nc2)c1Cl [Example 76, 4-Chloro-3-ethyl-N-[6-[(2S)-morpholin-2-yl]-3-pyridyl]-1H-pyrazole-5-carboxamide] | 0.0063 µM | 0.0384 µM |  | 
24 | Fc1cc(Nc2ccc(C(F)(F)F)cn2)cnc1C1CNCCO1 (racemic) [Example 111, (RS)-5-Fluoro-6-morpholin-2-yl-N-[5-(trifluoromethyl)-2-pyridyl]pyridin-3-amine] | 0.0128 µM | 0.176 µM |  | 
25 | CCCCc1n[nH]c(C(=O)Nc2ccc([C@@H]3CNCCO3)nc2)c1F [Example 90, 3-Butyl-4-fluoro-N-[6-[(2S)-morpholin-2-yl]-3-pyridyl]-1H-pyrazole-5-carboxamide] | 0.0038 µM | 0.0269 µM |  | 
26 | CC(C)c1cc(C(=O)Nc2ccc([C@H]3CNCCO3)nc2)n(CC(F)(F)F)n1 [Example 98, 5-Isopropyl-N-[6-[(2R)-morpholin-2-yl]-3-pyridyl]-2-(2,2,2-trifluoroethyl)pyrazole-3-carboxamide] | 0.24 µM | 0.0442 µM |  | 
